Data published in patent publication US4440779A, “Tricyclic derivatives of substituted pyrrole acids as analgesic and anti-inflammatory agents” (Merck & Co., Inc., priority 1982, dated 1984).

What was measured:
gastric mucosa = test: Gastric Hemorrhage Lesion Formation Assay (GHLF); type: in vivo, rat (Sprague-Dawley); conditions: fasted, 4 h
Protocol: In other words, they induce less gastric irritation than Zompirac. The GHLF test is conducted according to the following procedure:
Rats (Sprague-Dawley, Males, 120-180 gm) are fasted overnight and dosed orally with drug suspended in 0.5% methylcellulose. The drug concentration is adjusted so that each animal received 1.0 ml/100 gm body weight. Four hours later the animals are killed by asphixiation in carbon dioxide, the stomachs removed, cut open and everted. The mucosal lining is washed and examined under 3X magnification. The lesions are identified as perforations of the gastric mucosa, many of which perforate right through the wall of the stomach.
The results are expressed in two ways, the average number of lesions per stomach, and the number of animals in the group showing at least one lesion.

[1] = system: edema induced by carragenin in rat foot; test: rat foot edema assay (carragenin-induced edema, C.F.E.); type: in vivo, rat (Sprague Dawley); conditions: 1 h before carragenin, read at 3 h; for inhibition in vivo at 3 mg/kg: 3 mg/kg oral; for inhibition in vivo at 10 mg/kg: 10 mg/kg oral; for inhibition in vivo at 20 mg/kg: 20 mg/kg oral; for inhibition in vivo at 30 mg/kg: 30 mg/kg oral
Protocol: The rat foot edema assay for determining anti-inflammatory activity is based on the ability of the compounds of Formula I to inhibit the edema induced by the injection of an inflammatory (phlogistic) agent into the tissues of the foot of a rat. Several groups of six male rats (Sprague Dawley strain, 150±30 g each) are given orally the compounds to be tested one hour before 0.1 ml of a 1% suspension of carragenin in 0.5% methocel is injected into the planar surface of each rat's right hind paws. Immediately and again three hours later, the foot volume is measured and recorded. The difference between the initial and final volumes is a measurement of the edema produced. Usually the compounds to be tested are suspended or dissolved in 0.5% methocel, and their activities measured against that produced by a known anti-inflammatory agent e.g., zomepirac (U.S. Pat. No. 3,952,012) according to standard procedure. The activity of a tested compound is also compared with that produced by a "control" rat which receives only the methocel solution. A test of 3 mg/kg, 10 mg/kg plus one dose of 30 mg/kg are usually given.

| Compound | Animals with lesions (gastric mucosa; 90 mg/kg oral) | Ave. lesions per animal (gastric mucosa; 90 mg/kg oral) | inhibition in vivo at 3 mg/kg [1] [%] | inhibition in vivo at 10 mg/kg [1] [%] | inhibition in vivo at 20 mg/kg [1] [%] | inhibition in vivo at 30 mg/kg [1] [%] | also measured |
| --- | --- | --- | --- | --- | --- | --- | --- |
| Cc1ccc2c(c1)OCc1cc(CC(=O)O)n(C)c1C2=O [7-CH3 / OCH2 / H, 1,7-dimethyl-4,10-dihydro-10-oxo-1H[1]benzoxepino[4,3-b]-pyrrole-2-acetic acid] | 2/6 | 0.33 | 32.1 | 39.9 | 42.6 | – | Animals with lesions (gastric mucosa; 30 mg/kg oral): 0/6; Ave. lesions per animal (gastric mucosa; 30 mg/kg oral): 0; Animals with lesions (gastric mucosa; 60 mg/kg oral): 1/6; Ave. lesions per animal (gastric mucosa; 60 mg/kg oral): 0.16; Animals with lesions (gastric mucosa; 120 mg/kg oral): 4/6; Ave. lesions per animal (gastric mucosa; 120 mg/kg oral): 3.3 |
| CC(C(=O)O)c1cc2c(n1C)C(=O)c1ccc(Cl)cc1CC2 (stereo not drawn) [7-Cl / CH2CH2 / CH3, 1,4,5,10-Tetrahydro-7-chloro-1,α-dimethyl-10-oxobenzocyclohepta[1,2-b]pyrrole-2-acetic acid] | – | – | – | – | 36.8 | 59 | – |
| Cn1c(CC(=O)O)cc2c1C(=O)c1ccc(Cl)cc1CC2 [7-Cl / CH2CH2 / H] | – | – | 29.9 | 41.5 | – | 57.5 | Animals with lesions (gastric mucosa; 100 mg/kg oral): 1/5; Ave. lesions per animal (gastric mucosa; 100 mg/kg oral): 0.2; Animals with lesions (gastric mucosa; 300 mg/kg oral): 0/5; Ave. lesions per animal (gastric mucosa; 300 mg/kg oral): 0; Animals with lesions (gastric mucosa; 600 mg/kg oral): 4/5; Ave. lesions per animal (gastric mucosa; 600 mg/kg oral): 1.8 |
| Cn1c(CC(=O)O)cc2c1C(=O)c1ccc(Cl)cc1CO2 [7-Cl / CH2O / H] | – | – | – | – | 50 | – | – |
| CC(C(=O)O)c1cc2c(n1C)C(=O)c1ccc(Cl)cc1OC2 (stereo not shown) [7-Cl / OCH2 / CH3] | – | – | – | – | – | 60 | – |
| Cn1c(CC(=O)O)cc2c1C(=O)c1ccc(Cl)cc1OC2 [7-Cl / OCH2 / H, 7-chloro-4,10-dihydro-1-methyl-10-oxo-1H-[1]benzoxepino[4,3-b]pyrrole-2-acetic acid] | 5/6 | 5.0 | 46 | 64 | – | 54 | Animals with lesions (gastric mucosa; 60 mg/kg oral): 0/6; Ave. lesions per animal (gastric mucosa; 60 mg/kg oral): 0 |
| Cn1c(CC(=O)O)cc2c1C(=O)c1ccc(Cl)cc1SC2 [7-Cl / SCH2 / H, 7-Chloro-4,10-dihydro-1-methyl-10-oxo-1H-[1]benzothiepino[4,3-b]pyrrole-2-acetic acid] | – | – | – | – | – | 51 | – |
| Cn1c(CC(=O)O)cc2c1C(=O)c1ccc(F)cc1OC2 [7-F / OCH2 / H] | – | – | – | 31 | – | 40 | – |
| COc1ccc2c(c1)OCc1cc(CC(=O)O)n(C)c1C2=O [7-OCH3 / OCH2 / H, 7-methoxy-4,10-dihydro-1-methyl-10-oxo-1H[1]-benzoxepino[4,3-b]pyrrole-2-acetic acid] | 2/6 | 1.0 | 44 | – | – | 61 | Animals with lesions (gastric mucosa; 120 mg/kg oral): 4/6; Ave. lesions per animal (gastric mucosa; 120 mg/kg oral): 4.0 |
